# Assay results reported in patent publication US20230034584A1, “INHIBITORS OF SHP2” (Bayer Aktiengesellschaft, priority 2019, published 2023).
# Where two headings read alike, the source gives them in different places.
# Tests used:
# [1] = test system: 20 other PTPs; details: literature value; cited from earlier work
# [2] = test system: MRL/lpr mice; details: MRL/lpr mice treated with the SHP2 inhibitor; cited from earlier work
# [3] = test system: C57/Bl6J mice with UUO; assay: Unilateral ureteral obstruction (UUO) mouse model, 10 days, fibrosis markers; type: in vivo; details: for Collagen content (Sirius Red/Fast Green staining) of obstructed kidney / αSMA-positive area within the obstructed kidney: ten days, histology
# Procedure: Experiments indicative for chronic kidney diseases were carried out in unilateral ureteral obstruction (UUO) mouse models (examples 1). Such treatment results in the short version of the UUO model (3 days) in pronounced macrophage infiltration into the affected kidney, which is one of the triggers for the subsequent interstitial fibrosis and nephron damage. Collagen expression is increased in UUO after 10 days as a result of renal fibrosis, while alpha-smooth muscle actin (ASMA) expression is increased as a result of reduced renal function, or fibroblast expansion (see Chevalier et al, 2009). The study was performed on male C57/Bl6J mice (age: 7-8 weeks) that were obtained from Charles River. Mice were anesthetized with continuous inhaled isoflurane, and the left ureter was exposed via a mid-abdominal incision. The mid-ureter was obstructed by two point ligation with silk sutures. The SHAM-operated mouse (n=6) underwent the same procedure except for the obstruction of the left ureter. The mice were randomized into four groups (n=10 each group): UUO plus vehicle (10% EtOH/40% PEG/50% water), UUO plus 3 [mg/kg] SHP099, UUO plus 30 [mg/kg] SHP099. Mice were dosed bidaily with vehicle and SHP099. The forth group of mice with UUO was treated once daily with Tivozanib (technical control). At ten days after surgery, mice were euthanized, and kidneys were collected and divided in two parts. One part was snap-frozen in liquid nitrogen for RNA analysis. The other part was stored in Davidson's fixative for the preparation of histological sections. Total RNA was isolated from parts of harvested kidneys. Kidney tissue was homogenized and RNA was obtained and transcribed to cDNA. Using TaqMan real time PCR renal mRNA expression of fibrotic markers was analyzed in kidney tissues. For the assessment of fibrosis on the protein level paraffin tissue sections were stained with alpha-smooth muscle actin (αSMA) and Sirius Red/Fast Green Collagen Stainings using standard procedures. Quantitative measurements of alpha-smooth muscle actin (αSMA)-positive as well as Sirius Red (Collagen) positive areas within the kidneys were obtained by computer image analysis using the Axio Scan Z1 (Zeiss) microscope and the Zen software. All data are expressed as means±S.D. Differences between groups were analyzed by one-way ANOVA with Dunnett's corrections for multiple comparisons. Statistical significance was defined as p<0.05.
# [4] = test system: ERK1/2 Thr202/Tyr204-phosphorylation in human renal proximal tubular epithelial cells (RPTEC); assay: Phospho-ERK cellular assay (HTRF); type: cell-based; details: read-out: IC50, inhibition of ERK phosphorylation
# Procedure: Cellular pERK assay was used to determine compound activity on modulating ERK1/2 Thr202/Tyr204-phosphorylation in renal cells. […] The intracellular levels of ERK1/2 phosphorylated at Thr202/Tyr204 were quantified with Advanced Phospho-ERK HTRF assay (Cisbio, Cat. #64AERPEH). Compound incubation was terminated by addition of 16 μL lysis buffer (Cisbio) and 4 μL pERK HTRF® antibody cocktail (Cisbio).
# [5] = test system: C57/Bl6J mice with UUO; assay: UUO mouse model, macrophage infiltration by flow cytometry (CD45, F4/80); type: in vivo; details: 1 and 10 mg/kg once daily p.o.
# Procedure: Experiments indicative for chronic kidney diseases were carried out in unilateral ureteral obstruction (UUO) mouse models (examples 1). Such treatment results in the short version of the UUO model (3 days) in pronounced macrophage infiltration into the affected kidney, which is one of the triggers for the subsequent interstitial fibrosis and nephron damage. Collagen expression is increased in UUO after 10 days as a result of renal fibrosis, while alpha-smooth muscle actin (ASMA) expression is increased as a result of reduced renal function, or fibroblast expansion (see Chevalier et al, 2009).
# (§1) The study was performed on male C57/Bl6J mice (age: 7-8 weeks) that were obtained from Charles River. Mice were anesthetized with continuous inhaled isoflurane, and the left ureter was exposed via a mid-abdominal incision. The mid-ureter was obstructed by two point ligation with silk sutures. The SHAM-operated mouse (n=6) underwent the same procedure except for the obstruction of the left ureter. […] As a placebo, a solution without active ingredient was used (group 2), and a sham operated group with unligated kidney was used as a […] (group 1)
# The infiltration of macrophages in response to the renal injury was measured in a flow cytometry assay with detection antibodies binding to the pan-leukocyte marker CD45, as well as to the macrophage-specific antigen. F4/80.
# [6] = test system: pERK levels in the injured kidneys; assay: Phospho-ERK quantification in kidney lysates (HTRF), UUO mice; type: in vivo, mouse; details: 1 and 10 mg/kg once daily p.o.
# Procedure: Kidney tissue from animal studies was homogenized in supplemented HTRF lysis buffer (Cisbio). The volume of lysis buffer is adjusted at 1 mL per 100 mg tissue. Homogenization was performed with […] steel beads in Mixer Mill (Retsch, MM300) for 2.5 min/25 Hz, followed by sample cooling on ice. The protein concentration in tissue lysates was adjusted to 0.1-0.5 mg/mL and HTRF pERK assay performed as described above.
# as §1
# [7] = log D; type: physicochemical
# [8] = human proximal tubular epithelial cells (immortalized RPTEC), pERK HTRF
# [9] = 3 and 30 mg/kg bidaily, ten days after surgery, TaqMan PCR
compound,measurement,setting,value
Cn1c(-c2cccc(NC(=O)C(=O)Nc3ccc(-c4ccsc4)cc3)c2)c(I)c2cc(C(=O)O)c(O)cc21 [11a-1],selectivity against any of 20 other PTPs,[1],> 5 fold
same,progression of kidney disease in SLE-prone mice,[2],prevented the progression of kidney disease
COc1cc2nccc(Oc3ccc(NC(=O)Nc4cc(C)on4)c(Cl)c3)c2cc1OC [Tivozanib],Collagen content (Sirius Red/Fast Green staining) of obstructed kidney,[3]; once daily (technical control),significantly reduced
same,αSMA-positive area within the obstructed kidney,[3]; once daily (technical control),significantly reduced
"C[C@@H]1OCC2(CCN(c3cnc(Sc4ccnc(N)c4Cl)c(N)n3)CC2)[C@@H]1N [TNO-155, (3S,4S)-8-(6-amino-5-((2-amino-3-chloropyridin-4-yl)thio)pyrazin-2-yl)-3-methyl-2-oxa-8-azaspiro[4.5]decan-4-amine]",IC50,[4]; [8],46.4 nM
"Cc1nc(N2CCC3(CC2)CO[C@@H](C)[C@H]3N)c(CO)nc1-c1cccc(Cl)c1Cl [RMC-4550, [3-[(3S,4S)-4-amino-3-methyl-2-oxa-8-azaspiro[4.5]decan-8-yl]-6-(2,3-dichlorophenyl)-5-methylpyrazin-2-yl}methanol]",IC50,"[4]; Homo sapiens, RPTEC",12.6 nM
same,macrophage infiltration into the kidney,[5],"significant, dose-dependent reduction"
same,pERK levels in the injured kidneys,[6],dose-dependently reduced
same,logD,[7],2.2
CC1(N)CCN(c2cnc(-c3cccc(Cl)c3Cl)c(N)n2)CC1 [SHP099],IC50,[4]; [8],306 nM
same,αSMA-positive area within the obstructed kidney,[3]; 3 mg/kg bidaily,significant reduction
same,collagen RNA expression in kidney,[3]; [9],dose-dependent reduction
same,αSMA RNA expression in kidney,[3]; [9],dose-dependent reduction
same,Collagen content (Sirius Red/Fast Green staining) of obstructed kidney,[3]; both dosages (3 and 30 mg/kg bidaily),dose dependently and significantly reduced
